Source: patent US20040266805A1, “Inflammation modulatory compound” (priority 2001, published 2004)
“And” between values parts separate entries of the source, which are not always exact repeats. Identical values can stand only once.

Tests used:
[1] = test system: Splenocytes and thymocytes; test: Apoptosis by Annexin-V staining and flow cytometry; format: cell-based, rat; conditions: for Effect on apoptosis in cells following any of the culture periods: culture 6, 24, 48 or 72 h; for Effect on ConA-induced apoptosis in thymocytes: morphine 10^−8 to 10^−18 mol/l; for Effect on apoptosis in basal non-activated splenocytes and thymocytes: pre-incubation 1 h, basal apoptosis 4-8%
Method: Splenocytes and thymocytes obtained from adult male Wistar rats were cultured as previously described (10). Cells were incubated with EM-1, EM-2 or morphine at various concentrations for 1 h and were then activated with either Concanavalin A (ConA, 5 μg/ml, Sigma UK) or lipopolysaccharide (LPS, 25 μg/ml, Sigma, UK) and cultured for 6, 24, 48 or 72 h. After culture, cells were stained with Annexin-V-Fluos (Roche, Mannheim, Germany) and analysed by flow cytometry (Becton Dickinson, UK). Apoptosis in basal non-activated splenocytes and thymocytes was 4-8%, and pre-incubation with EM-1, EM-2 or morphine had no effect on this. ConA at 1 or 5 μg/ml induced 10-15 and 20-30% apoptosis respectively in rat splenocytes, values which were not altered by pre-incubation with EM-2 at concentrations of 10^−8 to 10^−18 mol/l. […] No effect of morphine, EM-1 or EM-2 was observed on apoptosis in cells following any of the culture periods.

[2] = test system: rat Fas in splenocytes and thymocytes; test: Fas expression by antibody staining and flow cytometry; format: cell-based; conditions: basal or ConA activated splenocytes and thymocytes, cultured 6 h
Method: Splenocytes and thymocytes, whether basal or ConA activated, were cultured for 6h in the presence of EM-1, EM-2 or morphine (concentration ranges as above) and were then stained with an antibody specific for rat Fas (Transduction Laboratories, Lexington, Ky., USA) and analysed by flow cytometry.

[3] = test system: Adjuvant arthritis (AA) in adult male Lewis rats; test: Intraperitoneal treatment of existing inflammation with endomorphin in adjuvant arthritis rats; format: in vivo, rat
Method: (§1) Adjuvant arthritis (AA) was induced in adult male Wistar rats by a single intradermal injection (0.1 ml) of a suspension of ground, heat-killed M. butyricum in paraffin oil (10 mg/ml) into the tail base (9). Rats were despatched 14 days following injection and spleens, thymuses and hind paws were collected on dry ice and stored at −80° C. Spleens, thymuses and synovial tissue from the paws were acid-extracted and the extracts were measured for the presence of EM-1 and EM-2 by RIAs (8). EM-1 contents in the spleen (p<0.05) and thymus (p<0.075) were elevated compared to tissues from non-AA controls (FIG. 4). […] Neither EM-1 or EM-2 were detectable in extracts of synovial tissues from control non-AA rats (FIG. 5).
Adjuvant arthritis (AA) was induced in adult male Lewis rats as above. Saline vehicle or 1 μmol of endomorphin in saline was given as an intraperitoneal (ip) injection on days 11, 12 and 13 after adjuvant injection, and after the onset of inflammation, to assess the modulation effect of the endomorphin.

[4] = test system: Adjuvant arthritis (AA) in adult male Wistar rats; test: Intraplantar treatment with endomorphin 1 prior to onset of inflammation in adjuvant arthritis rats; format: in vivo, rat; conditions: for Mean Paw Volume: days 9-13, day 14, vehicle 2.924
Method: as §1
(§2) Adjuvant arthritis (AA) was induced in adult male Wistar rats using the same protocol as described in Example 2 with saline vehicle or endomorphin 1 in saline being injected on days 9, 10, 11, 12 and 13 after adjuvant injection and prior to the onset of inflammation.

[5] = test system: arthritic male Wistar rats; test: Intraperitoneal administration of EM-1 prior to onset of inflammation in arthritic rats; format: in vivo, rat; parameters: Mean Paw Volume: unit not given beside the values; conditions: for Mean Paw Volume: n=7
Method: as §2
The protocol of Example 3 above was followed using intraperitoneal injection of 0.1 and 1.0 μmol Endomorphin-1 or vehicle in arthritic male Wistar rats prior to the onset of inflammation.
EM-1 or vehicle was administered on days 9, 10, 11, 12 and 13.

Compound | Effect on apoptosis in cells following any of the culture periods [1] | Effect on ConA-induced apoptosis in thymocytes [1] | Effect on apoptosis in basal non-activated splenocytes and thymocytes [1] | Alteration in expression of Fas [2] | Effect on existing inflammation ([3]; dose of 1 μmol ip) | Paw Volume ([3]; individual rats, 1 μmol ip on days 11, 12 and 13 after adjuvant, after onset of inflammation, day 14, listed as Endomorphin (EM-1)) | Paw Volume, mean ([3]; n=8, SEM=0.10, 1 μmol ip on days 11, 12 and 13, day 14, vehicle mean 2.96) [mL] | Mean Paw Volume ([4]; 10 pmol intraplantar, n=14) [mL] | Mean Paw Volume ([4]; 100 pmol intraplantar, n=14) [mL] | Mean Paw Volume ([4]; 1 nmol intraplantar, n=12) [mL] | Mean Paw Volume ([4]; 10 nmol intraplantar, n=14) [mL] | Mean Paw Volume ([4]; 100 fmol intraplantar, n=14) [mL] | Reduction of inflammation (decrease in paw volume compared to the vehicle group) ([4]; intraplantar injection, 100 fmols) [%] | Mean Paw Volume ([5]; 0.1 μmol ip group, Day 0 (before treatment on days 9-13)) | Mean Paw Volume ([5]; 0.1 μmol ip on days 9-13, Day 14, vehicle 2.927) | Mean Paw Volume ([5]; 1.0 μmol ip group, Day 0 (before treatment on days 9-13)) | Mean Paw Volume ([5]; 1.0 μmol ip on days 9-13, Day 14, vehicle 2.927) | Reduction in inflammation ([5]; 1 μmol ip, prophylactically) [%] | Effect on ConA-induced apoptosis in rat splenocytes ([1]; ConA 1 or 5 μg/ml, pre-incubation at 10^−8 to 10^−18 mol/l) | Effect on LPS-induced apoptosis ([1]; LPS 5 and 25 μg/ml, 10-12% apoptosis)
CN1CC[C@]23c4c5ccc(O)c4O[C@H]2[C@@H](O)C=C[C@H]3[C@H]1C5 [morphine, reference compound] | No effect | Neither EM-1, EM-2 nor morphine (concentration range of morphine 10^−8 to 10^−18 mol/l) had any effect | had no effect | No alteration |  |  |  |  |  |  |  |  |  |  |  |  |  |  |  | 
endomorphin-1 [EM-1] | No effect | Neither EM-1, EM-2 nor morphine (concentration range of morphine 10^−8 to 10^−18 mol/l) had any effect | had no effect | No alteration | reduce existing inflammation | 3.15 ml and 3.04 ml and 2.57 ml (2×) and 2.41 ml and 2.81 ml and 2.35 ml and 2.61 ml | 2.69 | 2.779 | 2.381 | 2.638 | 2.260 | 2.450 | ≤ 16 | 1.613 | 2.494 | 1.723 | 2.349 | 20 |  | 
endomorphin-2 [EM-2] | No effect | Neither EM-1, EM-2 nor morphine (concentration range of morphine 10^−8 to 10^−18 mol/l) had any effect | had no effect | No alteration |  |  |  |  |  |  |  |  |  |  |  |  |  |  | not altered | did not alter
